From article PMC6001238, “Iterative Chemical Engineering of Vancomycin Leads to Novel Vancomycin Analogs With a High in Vitro Therapeutic Index” (Frontiers in Microbiology, 2018)
≈ marks a conversion by molar mass, not a printed value.

How the values were obtained:
E. faecalis VRE 53 = assay: MIC, broth microdilution, vancomycin-resistant E. faecalis VRE 53 (VanA); format: cell-based, Enterococcus faecalis; details: for MIC: Enterococcus faecalis VRE 53 (vancomycin-resistant), read-out: MIC; for MIC-fold improvement vs. vancomycin: VRE 53, ratio of MIC of vancomycin and MIC of analogue
Method in brief: (§1)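 Controls (ultrapure water; broth not inoculated) were included throughout CLSI-compliant broth microdilution. One condition supplemented analogue or comparator with 10 μM vancomycin, final level.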

MRSA KS1 = assay: MIC, broth microdilution, MRSA KS1; format: cell-based, Staphylococcus aureus; details: for MIC-fold improvement vs. vancomycin: MRSA KS1, ratio of MIC of vancomycin and MIC of analogue; for MIC: Staphylococcus aureus MRSA KS1, read-out: MIC
Procedure: (§2) The minimum inhibitory concentration (MIC) was determined using the broth microdilution method according to the antimicrobial susceptibility testing standards of the clinical and laboratory standards institute ([Clinical and Laboratory Standards Institute [CLSI], 2012]). Ultrapure water and non-inoculated broth were used as controls. In one case, a final concentration of 10 μM vancomycin was included with the vancomycin analog or control antibiotic.

MRSA KS89 = assay: MIC, broth microdilution, MRSA KS89; format: cell-based, Staphylococcus aureus; details: for MIC-fold improvement vs. vancomycin: MRSA KS8, ratio of MIC of vancomycin and MIC of analogue; for MIC: Staphylococcus aureus MRSA KS8, read-out: MIC
Method in brief: as §1

E. faecalis VRE 6 = assay: MIC, broth microdilution, vancomycin-resistant E. faecalis VRE 6 (VanA); format: cell-based, Enterococcus faecalis; details: for MIC: Enterococcus faecalis VRE 6 (vancomycin-resistant), read-out: MIC; for MIC-fold improvement vs. vancomycin: VRE 6, ratio of MIC of vancomycin and MIC of analogue
Method in brief: as §1

S. aureus VRSA = assay: MIC, broth microdilution, vancomycin-resistant S. aureus (VRSA); format: cell-based, Staphylococcus aureus; details: for MIC: Staphylococcus aureus VRSA, read-out: MIC; for MIC-fold improvement vs. vancomycin: VRSA, ratio of MIC of vancomycin and MIC of analogue
Method in brief: as §1

[1] = test system: Murine leukemia (L1210) cells; assay: Cytostatic activity, L1210 cell proliferation; format: cell-based; details: mean ± SD of three experiments; highest concentration tested 250 µM; 2 days; read-out: Toxicity (IC50) L1210
Method in brief: (§3)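 Test compounds, serially diluted, received an equal volume of cell suspension at 300,000–500,000 cells/mL. After 37°C incubation (2 days for L1210, 3 for CEM, 4 for HeLa), cells were enumerated by Coulter counting and 50%-inhibitory concentrations calculated per cell type.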

S. aureus VISA/HIP5827 = assay: MIC, broth microdilution, vancomycin-intermediate S. aureus VISA HIP5827; format: cell-based, Staphylococcus aureus; details: for MIC: Staphylococcus aureus VISA/HIP5827, read-out: MIC; for MIC-fold improvement vs. vancomycin: VISA/HIP5827, ratio of MIC of vancomycin and MIC of analogue
Method in brief: as §1

MRSA KS2 = assay: MIC, broth microdilution, MRSA KS2; format: cell-based, Staphylococcus aureus; details: for MIC-fold improvement vs. vancomycin: MRSA KS2, ratio of MIC of vancomycin and MIC of analogue; for MIC: Staphylococcus aureus MRSA KS2, read-out: MIC
Procedure: as §2

[2] = test system: human cervix carcinoma (HeLa) cells; assay: Cytostatic activity, HeLa cell proliferation; format: cell-based; details: mean ± SD of three experiments; highest concentration tested 250 µM; 4 days; read-out: Toxicity (IC50) HeLa
Method in brief: as §3

E. faecalis VSE 1 = assay: MIC, broth microdilution, vancomycin-sensitive E. faecalis (VSE 1); format: cell-based, Enterococcus faecalis; details: for MIC: Enterococcus faecalis VSE 1 (vancomycin-sensitive), read-out: MIC; for MIC-fold improvement vs. vancomycin: VSE 1, ratio of MIC of vancomycin and MIC of analogue
Method in brief: as §1

E. faecalis VRE 37 = assay: MIC, broth microdilution, vancomycin-resistant E. faecalis VRE 37 (VanA); format: cell-based, Enterococcus faecalis; details: for MIC: Enterococcus faecalis VRE 37 (vancomycin-resistant), read-out: MIC; for MIC-fold improvement vs. vancomycin: VRE 37, ratio of MIC of vancomycin and MIC of analogue
Method in brief: as §1

[3] = test system: S. aureus VSSA (ATCC 6538); assay: MIC, broth microdilution, vancomycin-sensitive S. aureus (VSSA/MSSA, ATCC 6538); format: cell-based, Staphylococcus aureus; details: for MIC: Staphylococcus aureus VSSA, read-out: MIC; for MIC-fold improvement vs. vancomycin: VSSA, ratio of MIC of vancomycin and MIC of analogue
Method in brief: as §1

[4] = test system: L1210, CEM and HeLa cell lines; assay: Cytostatic activity, average or summary over L1210, CEM and HeLa; format: cell-based; details: average of L1210, CEM and HeLa; read-out: Toxicity (IC50) Average
Method in brief: as §3

MRSA KS6 = assay: MIC, broth microdilution, MRSA KS6; format: cell-based, Staphylococcus aureus; details: for MIC-fold improvement vs. vancomycin: MRSA KS6, ratio of MIC of vancomycin and MIC of analogue; for MIC: Staphylococcus aureus MRSA KS6, read-out: MIC
Procedure: as §2

[5] = test system: human T-lymphocyte (CEM) cells; assay: Cytostatic activity, CEM cell proliferation; format: cell-based; details: mean ± SD of three experiments; highest concentration tested 250 µM; 3 days; read-out: Toxicity (IC50) CEM
Method in brief: as §3

E. faecalis VRE 29 = assay: MIC, broth microdilution, vancomycin-resistant E. faecalis VRE 29 (VanA); format: cell-based, Enterococcus faecalis; details: for MIC: Enterococcus faecalis VRE 29 (vancomycin-resistant), read-out: MIC; for MIC-fold improvement vs. vancomycin: VRE 29, ratio of MIC of vancomycin and MIC of analogue
Method in brief: as §1

| SMILES | MIC (E. faecalis VRE 53) [µM] | MIC-fold improvement vs. vancomycin (E. faecalis VRE 53) | MIC-fold improvement vs. vancomycin (MRSA KS1) | MIC (MRSA KS1) [µM] | MIC-fold improvement vs. vancomycin (MRSA KS89) | MIC (MRSA KS89) [µM] | MIC (E. faecalis VRE 6) [µM] | MIC-fold improvement vs. vancomycin (E. faecalis VRE 6) | MIC (S. aureus VRSA) [µM] | MIC-fold improvement vs. vancomycin (S. aureus VRSA) | IC50 [1] [µM] | MIC (S. aureus VISA/HIP5827) [µM] | MIC-fold improvement vs. vancomycin (S. aureus VISA/HIP5827) | MIC-fold improvement vs. vancomycin (MRSA KS2) | MIC (MRSA KS2) [µM] | IC50 [2] [µM] | MIC (E. faecalis VSE 1) [µM] | MIC-fold improvement vs. vancomycin (E. faecalis VSE 1) | MIC (E. faecalis VRE 37) [µM] | MIC [3] [µM] | other results |
| --- | --- | --- | --- | --- | --- | --- | --- | --- | --- | --- | --- | --- | --- | --- | --- | --- | --- | --- | --- | --- | --- |
| CN[C@H](CC(C)C)C(=O)N[C@H]1C(=O)N[C@@H](CC(N)=O)C(=O)N[C@H]2C(=O)N[C@H]3C(=O)N[C@H](C(=O)N[C@H](C(=O)NCC(=O)Nc4c(C)cc(C)cc4C)c4cc(O)cc(O)c4-c4cc3ccc4O)[C@H](O)c3ccc(c(Cl)c3)Oc3cc2cc(c3O[C@@H]2O[C@H](CO)[C@@H](O)[C@H](O)[C@H]2O[C@H]2C[C@](C)(N)[C@H](O)[C@H](C)O2)Oc2ccc(cc2Cl)[C@H]1O [Vanc-9] | 25 (≈ 40.6 µg/mL) | 16 | 1 | 0.78 (≈ 1.27 µg/mL) | 1 | 0.78 (≈ 1.27 µg/mL) | 6.25 (≈ 10.1 µg/mL) | 32 | 25 (≈ 40.6 µg/mL) | 4 | > 250 | 1.56 (≈ 2.53 µg/mL) | 4 | 1 | 0.78 (≈ 1.27 µg/mL) | 83 ± 5 | 0.78 (≈ 1.27 µg/mL) | 2 | 25 (≈ 40.6 µg/mL) | 0.78 (≈ 1.27 µg/mL) | MIC-fold improvement vs. vancomycin [3]: 1; IC50 [4]: 191 µM; MIC-fold improvement vs. vancomycin (MRSA KS6): 1; MIC (MRSA KS6): 0.78 µM (≈ 1.27 µg/mL); IC50 [5]: 240 ± 14 µM; MIC (E. faecalis VRE 29): 25 µM (≈ 40.6 µg/mL); MIC-fold improvement vs. vancomycin (E. faecalis VRE 29): 16 |
| CN[C@H](CC(C)C)C(=O)N[C@H]1C(=O)N[C@@H](CC(N)=O)C(=O)N[C@H]2C(=O)N[C@H]3C(=O)N[C@H](C(=O)N[C@H](C(=O)NCC(=O)Nc4cccc(F)c4)c4cc(O)cc(O)c4-c4cc3ccc4O)[C@H](O)c3ccc(c(Cl)c3)Oc3cc2cc(c3O[C@@H]2O[C@H](CO)[C@@H](O)[C@H](O)[C@H]2O[C@H]2C[C@](C)(N)[C@H](O)[C@H](C)O2)Oc2ccc(cc2Cl)[C@H]1O [Vanc-10] | 12.5 (≈ 20 µg/mL) | 32 | 2 | 0.39 (≈ 0.624 µg/mL) | 2 | 0.39 (≈ 0.624 µg/mL) | 6.25 (≈ 10 µg/mL) | 32 | 12.5 (≈ 20 µg/mL) | 8 | > 250 | 0.78 (≈ 1.25 µg/mL) | 8 | 2 | 0.39 (≈ 0.624 µg/mL) | 214 ± 51 | 0.78 (≈ 1.25 µg/mL) | 2 | 12.5 (≈ 20 µg/mL) | 0.78 (≈ 1.25 µg/mL) | MIC-fold improvement vs. vancomycin (E. faecalis VRE 37): 64; MIC-fold improvement vs. vancomycin [3]: 1; IC50 [4]: 238 µM; MIC-fold improvement vs. vancomycin (MRSA KS6): 1; MIC (MRSA KS6): 0.78 µM (≈ 1.25 µg/mL); IC50 [5]: > 250 µM; MIC (E. faecalis VRE 29): 12.5 µM (≈ 20 µg/mL); MIC-fold improvement vs. vancomycin (E. faecalis VRE 29): 32 |
| CN[C@H](CC(C)C)C(=O)N[C@H]1C(=O)N[C@@H](CC(N)=O)C(=O)N[C@H]2C(=O)N[C@H]3C(=O)N[C@H](C(=O)N[C@H](C(=O)NCC(=O)Nc4cc(C)cc(C)c4)c4cc(O)cc(O)c4-c4cc3ccc4O)[C@H](O)c3ccc(c(Cl)c3)Oc3cc2cc(c3O[C@@H]2O[C@H](CO)[C@@H](O)[C@H](O)[C@H]2O[C@H]2C[C@](C)(N)[C@H](O)[C@H](C)O2)Oc2ccc(cc2Cl)[C@H]1O [Vanc-11] | 12.5 (≈ 20.1 µg/mL) | 32 | 1 | 0.78 (≈ 1.26 µg/mL) | 2 | 0.39 (≈ 0.628 µg/mL) | 3.13 (≈ 5.04 µg/mL) | 64 | 12.5 (≈ 20.1 µg/mL) | 8 | > 250 | 0.78 (≈ 1.26 µg/mL) | 8 | 1 | 0.78 (≈ 1.26 µg/mL) | 87 ± 9 | 0.39 (≈ 0.628 µg/mL) | 4 | 12.5 (≈ 20.1 µg/mL) | 0.78 (≈ 1.26 µg/mL) | MIC-fold improvement vs. vancomycin (E. faecalis VRE 37): 64; MIC-fold improvement vs. vancomycin [3]: 1; IC50 [4]: 178 µM; MIC-fold improvement vs. vancomycin (MRSA KS6): 2; MIC (MRSA KS6): 0.39 µM (≈ 0.628 µg/mL); IC50 [5]: 196 ± 15 µM; MIC (E. faecalis VRE 29): 6.25 µM (≈ 10.1 µg/mL); MIC-fold improvement vs. vancomycin (E. faecalis VRE 29): 32 |
| CNC(CC(C)C)C(=O)NC1C(=O)NC(CC(N)=O)C(=O)NC2C(=O)NC3C(=O)NC(C(=O)NC(C(=O)NCC(=O)Nc4cccc(OC)c4)c4cc(O)cc(O)c4-c4cc3ccc4O)C(O)c3ccc(c(Cl)c3)Oc3cc2cc(c3OC2OC(CO)C(O)C(O)C2OC2CC(C)(N)C(O)C(C)O2)Oc2ccc(cc2Cl)C1O (stereo not shown) [Vanc-12] | 12.5 (≈ 20.1 µg/mL) | 32 | 2 | 0.39 (≈ 0.628 µg/mL) | 2 | 0.39 (≈ 0.628 µg/mL) | 6.25 (≈ 10.1 µg/mL) | 32 | 12.5 (≈ 20.1 µg/mL) | 8 | > 250 | 0.39 (≈ 0.628 µg/mL) | 16 | 2 | 0.39 (≈ 0.628 µg/mL) | 194 ± 78 | 0.78 (≈ 1.26 µg/mL) | 2 | 25 (≈ 40.3 µg/mL) | 0.39 (≈ 0.628 µg/mL) | MIC-fold improvement vs. vancomycin [3]: 2; IC50 [4]: 231 µM; MIC-fold improvement vs. vancomycin (MRSA KS6): 1; MIC (MRSA KS6): 0.78 µM (≈ 1.26 µg/mL); IC50 [5]: > 250 µM; MIC (E. faecalis VRE 29): 12.5 µM (≈ 20.1 µg/mL) |
